The structures appear in SMILES notation. ± gives the expanded uncertainty stated by the source.

A short description of one data set: refractive index (Na D-line) (dimensionless). The conditions noted are these: 328.15 K; 81.5 kPa; Liquid; Standard Abbe refractometry.
In the case of `CCCCC(C)O` (configuration not stated) [2-hexanol], the refractive index turned out to be 1.3996 ± 0.0016.
Same read-out and setting: to `CCCCCC(C)O` (configuration not stated) [2-heptanol] belongs 1.40647 ± 0.0016; to `CNC1CCCCC1` [N-methylcyclohexylamine], 1.43809 ± 0.0016; to `CCCCCCC(C)O` (configuration not stated) [2-octanol], 1.41224 ± 0.0016.

A short description of a further data set: xn = mol fraction of the nth substance listed. The following applies: 298.15 K; 81.5 kPa; Liquid; Vibrating tube method; x1 = 1.
On to `CC(C)O` [propan-2-ol] + CNC1CCCCC1, for which the mass density was determined as 781.05 ± 1.6 kg/m3.
On the same count and under the same terms, to `CCC(C)O` (configuration not stated) [butan-2-ol] + CNC1CCCCC1 belongs 802.71 ± 1.6 kg/m3.
Same read-out and setting: the figure for `CCCCCCC(C)O` (configuration not stated) [2-octanol] + CNC1CCCCC1 is 817.05 ± 1.6 kg/m3; for `CCCC(C)O` (configuration not stated) [pentan-2-ol] + CNC1CCCCC1 it is 805.37 ± 1.6 kg/m3; for `CCCCC(C)O` (configuration not stated) [2-hexanol] + CNC1CCCCC1 it is 810.17 ± 1.6 kg/m3.
Regarding `CCCCCC(C)O` (configuration not stated) [2-heptanol] + CNC1CCCCC1, the mass density was 813.36 ± 1.6 kg/m3.

Staying with this data set, now noted: 308.15 K; 81.5 kPa; Liquid; Vibrating tube method; x1 = 1.
With `CC(C)O` [propan-2-ol] + CNC1CCCCC1, the mass density was 772.41 ± 1.6 kg/m3.
In the case of `CCC(C)O` (configuration not stated) [butan-2-ol] + CNC1CCCCC1, the mass density turned out to be 794.2 ± 1.6 kg/m3.
Same read-out and setting: to `CCCCCCC(C)O` (configuration not stated) [2-octanol] + CNC1CCCCC1 belongs 809.43 ± 1.6 kg/m3.
On the same count and under the same terms, to `CCCC(C)O` (configuration not stated) [pentan-2-ol] + CNC1CCCCC1 belongs 796.95 ± 1.6 kg/m3; to `CCCCC(C)O` (configuration not stated) [2-hexanol] + CNC1CCCCC1, 801.94 ± 1.6 kg/m3; to `CCCCCC(C)O` (configuration not stated) [2-heptanol] + CNC1CCCCC1, 805.72 ± 1.6 kg/m3.

Still in this data set, the particulars now being: 318.15 K; 81.5 kPa; Liquid; Vibrating tube method; x1 = 1.
Take `CC(C)O` [propan-2-ol] + CNC1CCCCC1: the mass density worked out at 763.41 ± 1.6 kg/m3.
For the molecule `CCC(C)O` (configuration not stated) [butan-2-ol] + CNC1CCCCC1, the mass density amounted to 785.32 ± 1.6 kg/m3.
Still for that read-out and setting: to `CCCCCCC(C)O` (configuration not stated) [2-octanol] + CNC1CCCCC1 belongs 801.32 ± 1.6 kg/m3; to `CCCC(C)O` (configuration not stated) [pentan-2-ol] + CNC1CCCCC1, 788.38 ± 1.6 kg/m3.
On the same count and under the same terms, the figure for `CCCCC(C)O` (configuration not stated) [2-hexanol] + CNC1CCCCC1 is 793.57 ± 1.6 kg/m3; for `CCCCCC(C)O` (configuration not stated) [2-heptanol] + CNC1CCCCC1 it is 797.65 ± 1.6 kg/m3.

The same data set, now with this note: 328.15 K; 81.5 kPa; Liquid; Vibrating tube method; x1 = 1.
Consider `CC(C)O` [propan-2-ol] + CNC1CCCCC1, for which the mass density worked out at 753.12 ± 1.6 kg/m3.
The same measure, in the same setting: the figure for `CCC(C)O` (configuration not stated) [butan-2-ol] + CNC1CCCCC1 is 775.52 ± 1.6 kg/m3; for `CCCCCCC(C)O` (configuration not stated) [2-octanol] + CNC1CCCCC1 it is 793.06 ± 1.6 kg/m3; for `CCCC(C)O` (configuration not stated) [pentan-2-ol] + CNC1CCCCC1 it is 779.17 ± 1.6 kg/m3.
Same read-out and setting: to `CCCCC(C)O` (configuration not stated) [2-hexanol] + CNC1CCCCC1 belongs 784.6 ± 1.6 kg/m3; to `CCCCCC(C)O` (configuration not stated) [2-heptanol] + CNC1CCCCC1, 789.38 ± 1.6 kg/m3.

A further data set can be described thus: refractive index (Na D-line) (dimensionless); xn = mol fraction of the nth substance listed. The conditions noted are these: 298.15 K; 81.5 kPa; Liquid; Standard Abbe refractometry; x1 = 1.
As for `CC(C)O` [propan-2-ol] + CNC1CCCCC1, the refractive index is 1.37511 ± 0.0016.
In the case of `CCC(C)O` (configuration not stated) [butan-2-ol] + CNC1CCCCC1, the refractive index came out at 1.39544 ± 0.0016.
Still for that read-out and setting: the figure for `CCCCCCC(C)O` (configuration not stated) [2-octanol] + CNC1CCCCC1 is 1.42483 ± 0.0016.
Turning to `CCCC(C)O` (configuration not stated) [pentan-2-ol] + CNC1CCCCC1, the refractive index was 1.4045 ± 0.0016.
Still for that read-out and setting: to `CCCCC(C)O` (configuration not stated) [2-hexanol] + CNC1CCCCC1 belongs 1.41296 ± 0.0016; to `CCCCCC(C)O` (configuration not stated) [2-heptanol] + CNC1CCCCC1, 1.41924 ± 0.0016.

The data set is the same for the next values; noted with them: 308.15 K; 81.5 kPa; Liquid; Standard Abbe refractometry; x1 = 1.
As to `CC(C)O` [propan-2-ol] + CNC1CCCCC1, the refractive index stood at 1.37097 ± 0.0016.
As to `CCC(C)O` (configuration not stated) [butan-2-ol] + CNC1CCCCC1, the refractive index turned out to be 1.39105 ± 0.0016.
Still for that read-out and setting: to `CCCCCCC(C)O` (configuration not stated) [2-octanol] + CNC1CCCCC1 belongs 1.42073 ± 0.0016; to `CCCC(C)O` (configuration not stated) [pentan-2-ol] + CNC1CCCCC1, 1.40029 ± 0.0016.
On to `CCCCC(C)O` (configuration not stated) [2-hexanol] + CNC1CCCCC1, for which the refractive index came out at 1.40853 ± 0.0016.
Regarding `CCCCCC(C)O` (configuration not stated) [2-heptanol] + CNC1CCCCC1, the refractive index is given as 1.41505 ± 0.0016.

The data set is the same for the next values; noted with them: 318.15 K; 81.5 kPa; Liquid; Standard Abbe refractometry; x1 = 1.
Take `CC(C)O` [propan-2-ol] + CNC1CCCCC1: the refractive index was found to be 1.36665 ± 0.0016.
Same read-out and setting: to `CCC(C)O` (configuration not stated) [butan-2-ol] + CNC1CCCCC1 belongs 1.38646 ± 0.0016.
Regarding `CCCCCCC(C)O` (configuration not stated) [2-octanol] + CNC1CCCCC1, the refractive index is 1.41648 ± 0.0016.
The same measure, in the same setting: to `CCCC(C)O` (configuration not stated) [pentan-2-ol] + CNC1CCCCC1 belongs 1.39586 ± 0.0016.
As to `CCCCC(C)O` (configuration not stated) [2-hexanol] + CNC1CCCCC1, the refractive index amounted to 1.40413 ± 0.0016.
With `CCCCCC(C)O` (configuration not stated) [2-heptanol] + CNC1CCCCC1, the refractive index came to 1.41076 ± 0.0016.

Still in this data set, the particulars now being: 328.15 K; 81.5 kPa; Liquid; Standard Abbe refractometry; x1 = 1.
As to `CC(C)O` [propan-2-ol] + CNC1CCCCC1, the refractive index was 1.36181 ± 0.0016.
Still for that read-out and setting: to `CCC(C)O` (configuration not stated) [butan-2-ol] + CNC1CCCCC1 belongs 1.38175 ± 0.0016; to `CCCCCCC(C)O` (configuration not stated) [2-octanol] + CNC1CCCCC1, 1.41224 ± 0.0016.
In the case of `CCCC(C)O` (configuration not stated) [pentan-2-ol] + CNC1CCCCC1, the refractive index amounted to 1.39126 ± 0.0016.
Still for that read-out and setting: to `CCCCC(C)O` (configuration not stated) [2-hexanol] + CNC1CCCCC1 belongs 1.3996 ± 0.0016; to `CCCCCC(C)O` (configuration not stated) [2-heptanol] + CNC1CCCCC1, 1.40647 ± 0.0016.

Broadly, the refractive index is the speed of light in vacuum divided by its phase velocity in the sample. As a reminder, the mass density is mass per unit of volume.
